Values of other authors in patent publication US20140294972A1, “Oral Suspension” (NOVA BIO-PHARMA TECHNOLOGIES LIMITED, priority 2011, published 2014).

Conditions: neutral pH

Sc1ncnc2nc[nH]c12 [6-MP, 3,7-dihydropurine-6-thione]
water solubility: about 6.85 mg/mL
